Where no end group is shown, it is not given here. Bounds are passed on as bounds.

In data set [1] the test system is Acinetobacter baumannii (ATCC 13304). The data set is classed as cell-based. Particulars: for Reduction in MIC against A. baumannii compared to hylin-Pul3: versus parent peptide hylin-Pul3. The procedure:
(§1) Hylin-Pul3 and six derivatives (dHP3-31, dHP3-50, dHP3-50.137, dHP3-50.190, dHP3-84, and dHP3-84.39) were tested against two Gram-positive bacteria, Staphylococcus aureus (ATCC 25923) and Streptococcus mutans (ATCC 25175), as well as three Gram-negative bacteria: Escherichia coli (ATCC 25922), Klebsiella pneumoniae (ATCC 13883), and Acinetobacter baumannii (ATCC 13304). The minimal inhibitory concentration (MIC) was determined using the microbroth dilution.
(§2) The peptides were serially diluted in concentrations ranging 128 to 0.25 μM, with gentamicin serving as a positive control, which was serially diluted to concentrations of 20 to 0.04 μM. Bacterial cultures were prepared in Mueller–Hinton (MH) medium to achieve a final inoculum concentration of 5 × 10^5 CFU/mL. […] All tests were performed in duplicate and repeated across three independent experiments.

Data set [2] deals with Escherichia coli (ATCC 25922). The data set is classed as cell-based. Particulars: for Reduction in MIC against E. coli compared to hylin-Pul3: versus parent peptide hylin-Pul3. On the procedure: as §1, §2
The test system of data set [3] is Klebsiella pneumoniae (ATCC 13883). The class given is cell-based. The procedure: as §1, §2
In data set [4] the test system is Staphylococcus aureus (ATCC 25923). The data set is classed as cell-based. On the procedure: as §1, §2
Data set [5] concerns Streptococcus mutans (ATCC 25175). The class given is cell-based. The procedure: as §1, §2
Data set [6] has as its system E. coli (ATCC 25922). The data set can be described thus: Synergistic checkerboard assay. The data set is classed as cell-based, Escherichia coli. The procedure: Briefly, working solutions of the peptides were prepared and serially diluted by half across the rows and columns of a microplate, ensuring that each well contained a unique combination of peptide concentrations. The starting concentrations corresponded to the respective MIC values of each peptide, followed by two-fold serial dilutions.
Each well was filled with 50 µL of the peptide solution (individual or combined) and 50 µL of a bacterial suspension (1 × 10^6 CFU/mL), resulting in a final bacterial concentration of 5 × 10^5 CFU/mL. The individual peptide solutions served as positive controls, while the MH medium was employed as a negative control. The microplates were incubated at 37 °C overnight. The test was performed in three independent experiments. The fractional inhibitory concentrations index (ΣFIC) was calculated using the following equation: (1) ∑FIC =MIC(A) in combination/MIC(A) alone+MIC(B) in combination /MIC(B) alone
The FIC index (ΣFIC) was interpreted as follows: ΣFIC ≤ 0.5 indicated synergy; 0.5 < ΣFIC ≤ 4 indicated no effect; and 4 < ΣFIC indicated antagonism.

The test system of data set [7] is Varicellovirus suidalpha1. The data set is classed as cell-based. Particulars: hylin-Pul3 at 20 μg/mL (10.8 μM), dHP3-84 at 75 μg/mL (34.5 μM); Vero monolayers, 90 min adsorption then 72 h at 37 °C, plaque titer, duplicate. On the procedure:
Antiviral activity assays were performed following a previously described protocol with slight modifications. The efficacy of the peptide compounds was assessed at different stages of the viral lifecycle, including adsorption, penetration, and intracellular replication. The hylin-Pul3 and dHP3-84 peptides were tested at non-cytotoxic concentrations of 20 μg/mL (10.8 μM) and 75 μg/mL (34.5 μM), respectively. Vero cell monolayers (African green monkey kidney cells) were cultured in 24-well plates and exposed to the peptide solutions along with serial 10-fold dilutions of Varicellovirus suidalpha1, formerly known as Herpes suis virus type 1 (HSV-1). The assays were performed in duplicate. […] The viral plaques that formed on the Vero cells were stained (1% crystal violet) and the viral titers were determined. The percentage viral inhibition was calculated by comparing the reduction in viral titer between the treatment and control groups. This was determined using the following formula: (2) % viral inhibition=100−A/B×100 where “A” represents the viral titer expressed in PFU/mL (Plaque-Forming Units per milliliter) obtained in the treated cultures and “B” is the viral titer expressed in PFU/mL obtained in the untreated cultures.

In data set [8] the test system is Vero cells. The class given is cell-based, African green monkey. Particulars: for CC50, concentration inducing 50% cell death in Vero cells / Cytotoxicity in Vero cells, CC50: 48 h. On the procedure:
The cytotoxicity of hylin-Pul3 and dHP3-84 peptides was evaluated on Vero cells procured from the Asociación Banco Argentino de Células (ABAC; Buenos Aires, Argentina). Cell viability was determined using the Neutral Red Uptake test (NRU) test, following a previously described methodology. The Vero cells were cultured in Minimum Essential Medium (MEM) supplemented with 8% fetal calf serum (FCS), 50 μg/mL gentamicin, and 2 mM glutamine. The cells were monitored by observing their morphological changes after 24 and 48 h of incubation.
For the NRU assay, the cells were seeded in 96-well culture plates at a density of 1 × 10^5 cells per well. The cell monolayers were treated with increasing concentrations of the peptide solutions (25–500 μg/mL) for 48 h in triplicate. The monolayers incubated with MM only were used as the control. Following exposure, the culture medium was replaced with 150 μL of a […] neutral red solution in MEM. After incubation at 37 °C for 3 h, the dye medium was discarded and the wells were gently washed with PBS. The intracellular dye was extracted using a mixture of acetic acid, ethanol, and water (1:50:49). After gentle agitation for 10 min, the absorbance values were measured at 540 nm.
The relative cell viability was calculated as a percentage of the NRU observed in the untreated control groups. The cell survival fraction was determined using the following formula: (4) Survival Fraction % (SF%)=D.O. treated cells/D.O. control cells×100

Data set [9] is described as follows: DPPH radical-scavenging activity. Conditions: peptides 0.1, 0.05, 0.025 mg/mL, 30 min dark 25 °C, absorbance 515 nm, triplicate. On the procedure:
A stock solution of 60 µM 1,1-diphenyl-2-picrylhydrazyl (DPPH) was prepared in ethanol, with its absorbance adjusted to 0.7 at 515 nm immediately before the assay using a Shimadzu 1240 UV–visible spectrophotometer (Kyoto, Japan). The peptides were dissolved in PBS, and 20 µL aliquots of each peptide solution were incubated with 180 µL of the ethanolic DPPH solution in triplicate, at final concentrations of 0.1, 0.05, and 0.025 mg/mL. For the negative control, 20 µL of PBS was mixed with 180 µL of the DPPH solution, while 20 µL of Trolox (6-hydroxy-2,5,7,8-tetramethylchroman-2-carboxylic acid) served as the positive control and standard. The mixtures were incubated in the dark at 25 °C for 30 min, after which, the absorbance was measured at 515 nm. The reduction in absorbance, indicative of DPPH-scavenging activity, was compared to a standard curve. The results were expressed as milligrams of Trolox equivalents per milligram of peptide (mg Trolox equivalents/mg of peptide).

Data set [10] can be described thus: ABTS assay. Particulars: peptides 0.05, 0.025, 0.0125 mg/mL, 1 h dark, absorbance 734 nm, triplicate. On the procedure:
The 2,2-azinobis-3-ethylbenzothiazoline-6-sulfonic acid (ABTS^+) free radical-scavenging activity was determined following the method in [38]. The ABTS⁺ radical cation was generated by diluting a 245 mM ammonium persulfate (APS) solution at a ratio of 1:100 with a 7 mM ABTS solution, followed by overnight incubation in the dark at room temperature. The ABTS^+ solution was then diluted with water to obtain an absorbance of 0.70 at 734 nm immediately before the assay using a Shimadzu 1240 UV-visible spectrophotometer (Kyoto, Japan). The peptides were dissolved in PBS, and 10 µL aliquots of each peptide solution were incubated with 190 µL of the ABTS^+ solution in triplicate, at final concentrations of 0.05, 0.025, and 0.0125 mg/mL. After a 1 h incubation in the dark, the absorbance was measured at 734 nm. The radical-scavenging activity was quantified against a standard curve, with the results expressed as milligrams of Trolox equivalents per milligram of peptide.

On to RLGKLIPRIAKAIGRLIRK-OH [dHP3-84], for which, in [1], the “Antimicrobial Activity (MIC) A. baumannii ATCC 13304” value is listed as 8.0 ± 0.0 µM and the “Reduction in MIC against A. baumannii compared to hylin-Pul3” value (from here on “Reduction in MIC against A. baumannii”) turned out to be 4 fold. Moreover, in [2], the “Antimicrobial Activity (MIC) E. coli ATCC 25922” value is 8.0 ± 0.0 µM and the “Reduction in MIC against E. coli compared to hylin-Pul3” value (“Reduction in MIC against E. coli” below) turned out to be 4 fold. Besides, the “Antimicrobial Activity (MIC) K. pneumoniae ATCC 13883” value in data set [3] was 18.6 ± 6.5 µM. For the same substance, the “Lower MIC than the original peptide against K. pneumoniae” value in data set [3] (versus hylin-Pul3) amounted to 4 fold. Moreover, in data set [4], the “Antimicrobial Activity (MIC) S. aureus ATCC 25923” value is listed as 9.3 ± 3.3 µM. Further, the “Antimicrobial Activity (MIC) S. mutans ATCC 25175” value in data set [5] is 7.3 ± 1.6 µM. In addition, in [6] (combination of dHP3-84 and dHP3-50.137, E. coli ATCC 25922, 5 × 10^5 CFU/mL, 37 °C overnight, three independent experiments, ΣFIC ≤ 0.5 = synergy), the “Synergistic Activity, FIC Index (ΣFIC)” value is 0.5. Moreover, the “Improvement of combined activity compared to each peptide individually” value in data set [6] (dHP3-84 + dHP3-50.137, E. coli) is 2 fold. Moreover, the “Antiviral Activity, viral inhibition” value in [7] was 70%. Also, in data set [8], the “Cytotoxicity in Vero cells, MNCC” value came out at 57.6 µM; the “CC50, concentration inducing 50% cell death in Vero cells” value came to 230 µg/mL; the “Cytotoxicity in Vero cells, CC50” value is recorded as 105.9 µM.
Take RLGALIPAIRGAIKKLIKK-NH2 [dHP3-50]: in data set [1], the “Antimicrobial Activity (MIC) A. baumannii ATCC 13304” value is 6.6 ± 2 µM and the “Reduction in MIC against A. baumannii” value came to 4 fold. In [2], the “Antimicrobial Activity (MIC) E. coli ATCC 25922” value is given as 8.0 ± 0.0 µM and the “Reduction in MIC against E. coli” value worked out at 4 fold. Besides, in data set [3], the “Antimicrobial Activity (MIC) K. pneumoniae ATCC 13883” value stood at 64.0 ± 0.0 µM. Also, the “Antimicrobial Activity (MIC) S. aureus ATCC 25923” value in data set [4] is reported as 18.6 ± 6.5 µM. Moreover, the “Antimicrobial Activity (MIC) S. mutans ATCC 25175” value in data set [5] turned out to be 8.0 ± 0.0 µM.
Take LWPAIRGAIKKLIKK-NH2 [dHP3-31]: in [1], the “Antimicrobial Activity (MIC) A. baumannii ATCC 13304” value is 9.3 ± 3.2 µM and the “Reduction in MIC against A. baumannii” value came out at 4 fold. For the same substance, in [2], the “Antimicrobial Activity (MIC) E. coli ATCC 25922” value is on record as 16.0 ± 0.0 µM and the “Reduction in MIC against E. coli” value is listed as 4 fold. In data set [3], the “Antimicrobial Activity (MIC) K. pneumoniae ATCC 13883” value was >64 µM. In [4], the “Antimicrobial Activity (MIC) S. aureus ATCC 25923” value was 37.3 ± 13.1 µM. Moreover, in data set [5], the “Antimicrobial Activity (MIC) S. mutans ATCC 25175” value is on record as 18.7 ± 6.5 µM. The “Antioxidant activity DPPH” value in [9] is on record as “did not reveal significant activity”. Besides, in data set [10], the “Antioxidant activity ABTS” value is reported as 0.14 mg Trolox/mg.
As to RRIALIPAIRGAIKKLIKK-NH2 [dHP3-50.190], in [1], the “Antimicrobial Activity (MIC) A. baumannii ATCC 13304” value was determined as 16.0 ± 0.0 µM. For the same substance, in data set [2], the “Antimicrobial Activity (MIC) E. coli ATCC 25922” value came out at 9.3 ± 3.2 µM. In addition, the “Antimicrobial Activity (MIC) K. pneumoniae ATCC 13883” value in [3] was >64 µM. The “Antimicrobial Activity (MIC) S. aureus ATCC 25923” value in [4] came out at 29.3 ± 6.5 µM. Also, in data set [5], the “Antimicrobial Activity (MIC) S. mutans ATCC 25175” value was found to be 32.0 ± 0.0 µM.
As to “FLGALIPAIAGAIGGLIRK-NH2 [hylin-Pul3, reference compound]”, the “Antimicrobial Activity (MIC) A. baumannii ATCC 13304” value in [1] worked out at 32.0 ± 0.0 µM. For the same substance, in [2], the “Antimicrobial Activity (MIC) E. coli ATCC 25922” value is 32.0 ± 0.0 µM. The “Antimicrobial Activity (MIC) K. pneumoniae ATCC 13883” value in data set [3] is >64 µM. Also, the “Antimicrobial Activity (MIC) S. aureus ATCC 25923” value in data set [4] is on record as 7.3 ± 1.6 µM. The “Antimicrobial Activity (MIC) S. mutans ATCC 25175” value in [5] amounted to 4.6 ± 1.6 µM. In data set [7], the “Antiviral Activity, viral inhibition” value was determined as 0%. Further, in data set [8], the “Cytotoxicity in Vero cells, MNCC” value is reported as 13.5 µM; the “CC50, concentration inducing 50% cell death in Vero cells” value stood at 80 µg/mL; the “Cytotoxicity in Vero cells, CC50” value turned out to be 43.2 µM.

The values above are taken from article PMC11939955, “Enhancing Antimicrobial Peptides from Frog Skin: A Rational Approach” (Biomolecules, 2025).
